Source: ChEMBL document CHEMBL1629662, “Antimicrobial activity of prulifloxacin tested against a worldwide collection of gastroenteritis-producing pathogens, including those causing traveler's diarrhea” (2009)
≈ marks a conversion by molar mass, not a printed value.

Assays:
Vibrio sp. [1] = test: Antibacterial activity against Vibrio sp. assessed as percent susceptible isolates by broth microdilution method; format: functional
Shigella sp. [2] = test: Antibacterial activity against Shigella sp. assessed as growth inhibition at 0.12 ug/ml by broth microdilution method; format: functional
Vibrio vulnificus = test: Antibacterial activity against Vibrio vulnificus by broth microdilution method; format: functional
Escherichia coli [3] = test: Antibacterial activity against Escherichia coli assessed as growth inhibition at =>4 ug/ml by broth microdilution method; format: functional
Plesiomonas shigelloides [4] = test: Antibacterial activity against Plesiomonas shigelloides assessed as percent resistant isolates by broth microdilution method; format: functional
Campylobacter jejuni [5] = test: Antibacterial activity against Campylobacter jejuni assessed as percent susceptible isolates by broth microdilution method; format: functional; settings: pooled result: one value given for 2 cell lines, strains, targets or settings
Salmonella paratyphi [6] = test: Antibacterial activity against Salmonella enterica serovar Paratyphi by broth microdilution method; format: functional, Salmonella enterica subsp. enterica serovar Paratyphi A
Vibrio sp. [7] = test: Antibacterial activity against Vibrio sp. assessed as growth inhibition at 0.008 ug/ml by broth microdilution method; format: functional
Campylobacter sp. [8] = test: Antibacterial activity against Campylobacter sp. assessed as growth inhibition at 0.06 ug/ml by broth microdilution method; format: functional
Escherichia coli [9] = test: Antibacterial activity against Escherichia coli assessed as percent resistant isolates by broth microdilution method; format: functional
Aeromonas sp. [10] = test: Antibacterial activity against Aeromonas sp. assessed as growth inhibition at =<0.002 ug/ml by broth microdilution method; format: functional
Salmonella enteritidis = test: Antibacterial activity against Salmonella enterica serovar Enteritidis by broth microdilution method; format: functional, Salmonella enterica subsp. enterica serovar Enteritidis
Aeromonas sp. [11] = test: Antibacterial activity against Aeromonas sp. assessed as growth inhibition at 0.008 ug/ml by broth microdilution method; format: functional
Salmonella sp. = test: Antibacterial activity against Salmonella sp. assessed as growth inhibition at 0.12 ug/ml by broth microdilution method; format: functional
Salmonella typhimurium [12] = test: Antibacterial activity against Salmonella enterica serovar Typhimurium by broth microdilution method; format: functional, Salmonella enterica subsp. enterica serovar Typhimurium
Yersinia enterocolitica [13] = test: Antibacterial activity against Yersinia enterocolitica by broth microdilution method; format: functional
Aeromonas sobria [14] = test: Antibacterial activity against Aeromonas sobria assessed as percent resistant isolates by broth microdilution method; format: functional
Escherichia coli [15] = test: Antibacterial activity against Escherichia coli assessed as growth inhibition at 0.06 ug/ml by broth microdilution method; format: functional
Yersinia enterocolitica [16] = test: Antibacterial activity against Yersinia enterocolitica assessed as percent resistant isolates by broth microdilution method; format: functional
Campylobacter sp. [17] = test: Antibacterial activity against Campylobacter sp. assessed as growth inhibition at =<0.002 ug/ml by broth microdilution method; format: functional
Yersinia sp. [18] = test: Antibacterial activity against Yersinia sp. assessed as growth inhibition at 0.03 ug/ml by broth microdilution method; format: functional; settings: Yersinia sp. (in: enterobacteria)
Aeromonas hydrophila = test: Antibacterial activity against Aeromonas hydrophila assessed as percent susceptible isolates by broth microdilution method; format: functional
Escherichia coli [19] = test: Antibacterial activity against Escherichia coli assessed as growth inhibition at 0.004 ug/ml by broth microdilution method; format: functional
Campylobacter jejuni [20] = test: Antibacterial activity against Campylobacter jejuni by broth microdilution method; format: functional
Escherichia coli [21] = test: Antibacterial activity against Escherichia coli assessed as growth inhibition at 0.5 ug/ml by broth microdilution method; format: functional
Escherichia coli [22] = test: Antibacterial activity against Escherichia coli assessed as growth inhibition at 0.03 ug/ml by broth microdilution method; format: functional
Vibrio parahaemolyticus = test: Antibacterial activity against Vibrio parahaemolyticus assessed as percent susceptible isolates by broth microdilution method; format: functional
Aeromonas sp. [23] = test: Antibacterial activity against Aeromonas sp. assessed as growth inhibition at 1 ug/ml by broth microdilution method; format: functional
Escherichia coli [24] = test: Antibacterial activity against enterotoxigenic Escherichia coli assessed as percent susceptible isolates by broth microdilution method; format: functional
Campylobacter sp. [25] = test: Antibacterial activity against Campylobacter sp. assessed as growth inhibition at 0.5 ug/ml by broth microdilution method; format: functional
Plesiomonas shigelloides [26] = test: Antibacterial activity against Plesiomonas shigelloides assessed as growth inhibition at 0.004 ug/ml by broth microdilution method; format: functional
Vibrio fluvialis = test: Antibacterial activity against Vibrio fluvialis assessed as percent resistant isolates by broth microdilution method; format: functional
Plesiomonas shigelloides [27] = test: Antibacterial activity against Plesiomonas shigelloides assessed as percent susceptible isolates by broth microdilution method; format: functional
Vibrio sp. [28] = test: Antibacterial activity against Vibrio sp. assessed as growth inhibition at =<0.002 ug/ml by broth microdilution method; format: functional
Escherichia coli [29] = test: Antibacterial activity against enterotoxigenic Escherichia coli assessed as percent resistant isolates by broth microdilution method; format: functional
Shigella sp. [30] = test: Antibacterial activity against Shigella sp. assessed as growth inhibition at 0.004 ug/ml by broth microdilution method; format: functional
Salmonella typhimurium [31] = test: Antibacterial activity against Salmonella enterica serovar Typhimurium assessed as percent resistant isolates by broth microdilution method; format: functional, Salmonella enterica subsp. enterica serovar Typhimurium; settings: pooled result: one value given for 8 cell lines, strains, targets or settings
Escherichia coli [32] = test: Antibacterial activity against Escherichia coli assessed as growth inhibition at 0.008 ug/ml by broth microdilution method; format: functional
Aeromonas sp. [33] = test: Antibacterial activity against Aeromonas sp. assessed as growth inhibition at =>4 ug/ml by broth microdilution method; format: functional
Yersinia sp. [34] = test: Antibacterial activity against Yersinia sp. assessed as growth inhibition at 0.016 ug/ml by broth microdilution method; format: functional; settings: Yersinia sp. (in: enterobacteria)
Escherichia coli [35] = test: Antibacterial activity against Escherichia coli assessed as growth inhibition at 0.016 ug/ml by broth microdilution method; format: functional
Salmonella paratyphi [36] = test: Antibacterial activity against Salmonella enterica serovar Paratyphi assessed as percent susceptible isolates by broth microdilution method; format: functional, Salmonella enterica subsp. enterica serovar Paratyphi A
Campylobacter sp. [37] = test: Antibacterial activity against Campylobacter sp. assessed as growth inhibition at =>4 ug/ml by broth microdilution method; format: functional
Aeromonas sobria [38] = test: Antibacterial activity against Aeromonas sobria assessed as percent susceptible isolates by broth microdilution method; format: functional
Escherichia coli [39] = test: Antibacterial activity against Escherichia coli assessed as growth inhibition at 2 ug/ml by broth microdilution method; format: functional
Campylobacter jejuni [40] = test: Antibacterial activity against Campylobacter jejuni assessed as percent resistant isolates by broth microdilution method; format: functional; settings: pooled result: one value given for 2 cell lines, strains, targets or settings
Shigella sp. [41] = test: Antibacterial activity against Shigella sp. assessed as growth inhibition at 0.03 ug/ml by broth microdilution method; format: functional
Campylobacter coli = test: Antibacterial activity against Campylobacter coli by broth microdilution method; format: functional
[42] = Antibacterial activity against Salmonella enterica serovar Choleraesuis by broth microdilution method; format: functional, Salmonella enterica subsp. enterica serovar Choleraesuis
Plesiomonas shigelloides [43] = test: Antibacterial activity against Plesiomonas shigelloides assessed as growth inhibition at 0.008 ug/ml by broth microdilution method; format: functional
Vibrio sp. [44] = test: Antibacterial activity against Vibrio sp. assessed as growth inhibition at 0.03 ug/ml by broth microdilution method; format: functional
Shigella flexneri = test: Antibacterial activity against Shigella flexneri by broth microdilution method; format: functional

`CC1Sc2c(C(=O)O)c(=O)c3cc(F)c(N4CCNCC4)cc3n21` (configuration not stated) [ULIFLOXACIN] showed an Activity (Vibrio sp. [1]) of 100%, an inhibition at 0.12 µg/mL (Shigella sp. [2]) of 100% and an MIC50 (Vibrio vulnificus) of 0.016 µg/mL (≈ 0.0458 µM). For the same compound, the MIC90 (Vibrio vulnificus) was 0.03 µg/mL (≈ 0.0859 µM), the “inhibition (INH)” value (Escherichia coli [3]) was 100% and the Activity (Plesiomonas shigelloides [4]) was 0%. The Activity (Campylobacter jejuni [5]) was 84.4%, the MIC50 (Salmonella paratyphi [6]) was 0.008 µg/mL (≈ 0.0229 µM) and the MIC90 (Salmonella paratyphi [6]) was 0.03 µg/mL (≈ 0.0859 µM). It also gave an inhibition at 0.008 µg/mL (Vibrio sp. [7]) of 40%, an inhibition at 0.06 µg/mL (Campylobacter sp. [8]) of 77% and an Activity (Escherichia coli [9]) of 3%. For the same compound, the “inhibition (INH)” value (Aeromonas sp. [10]) was 16%, the MIC50 (Salmonella enteritidis) was 0.008 µg/mL (≈ 0.0229 µM) and the MIC90 (Salmonella enteritidis) was 0.03 µg/mL (≈ 0.0859 µM). The inhibition at 0.008 µg/mL (Aeromonas sp. [11]) was 68%, the inhibition at 0.12 µg/mL (Salmonella sp.) was 100% and the MIC50 (Salmonella typhimurium [12]) was 0.008 µg/mL (≈ 0.0229 µM). It also gave an MIC90 (Salmonella typhimurium [12]) of 0.03 µg/mL (≈ 0.0859 µM), an MIC (Yersinia enterocolitica [13]) of 0.008 µg/mL (≈ 0.0229 µM) and an MIC50 (Yersinia enterocolitica [13]) of 0.008 µg/mL (≈ 0.0229 µM). It also gave an MIC90 (Yersinia enterocolitica [13]) of 0.016 µg/mL (≈ 0.0458 µM), an Activity (Aeromonas sobria [14]) of 2% and an inhibition at 0.06 µg/mL (Escherichia coli [15]) of 97%. The Activity (Yersinia enterocolitica [16]) was 0%, the “inhibition (INH)” value (Campylobacter sp. [17]) was 0% and the inhibition at 0.03 µg/mL (Yersinia sp. [18]) was 93%. For the same compound, the Activity (Aeromonas hydrophila) was 98%, the inhibition at 0.004 µg/mL (Escherichia coli [19]) was 27% and the MIC50 (Campylobacter jejuni [20]) was 0.03 µg/mL (≈ 0.0859 µM). For the same compound, the MIC90 (Campylobacter jejuni [20]) was greater than 2 µg/mL, the inhibition at 0.5 µg/mL (Escherichia coli [21]) was 97% and the inhibition at 0.03 µg/mL (Escherichia coli [22]) was 96%. For the same compound, the Activity (Vibrio parahaemolyticus) was 100%, the inhibition at 1 µg/mL (Aeromonas sp. [23]) was 98% and the Activity (Escherichia coli [24]) was 100%. For the same compound, the inhibition at 0.5 µg/mL (Campylobacter sp. [25]) was 83%, the inhibition at 0.004 µg/mL (Plesiomonas shigelloides [26]) was 75% and the Activity (Vibrio fluvialis) was 0%. The Activity (Plesiomonas shigelloides [27]) was 100%, the “inhibition (INH)” value (Vibrio sp. [28]) was 15% and the Activity (Escherichia coli [29]) was 0%. It also gave an inhibition at 0.004 µg/mL (Shigella sp. [30]) of 62%, an Activity (Salmonella typhimurium [31]) of 0% and an inhibition at 0.008 µg/mL (Escherichia coli [32]) of 93%. For the same compound, the “inhibition (INH)” value (Aeromonas sp. [33]) was 100%, the inhibition at 0.016 µg/mL (Yersinia sp. [34]) was 93% and the inhibition at 0.016 µg/mL (Escherichia coli [35]) was 94%. For the same compound, the Activity (Salmonella paratyphi [36]) was 100%, the “inhibition (INH)” value (Campylobacter sp. [37]) was 100% and the Activity (Aeromonas sobria [38]) was 98%. It also gave an inhibition at 2 µg/mL (Escherichia coli [39]) of 97%, an Activity (Campylobacter jejuni [40]) of 14.7% and an inhibition at 0.03 µg/mL (Shigella sp. [41]) of 99%. It also gave an MIC50 (Campylobacter coli) of 0.03 µg/mL (≈ 0.0859 µM), an MIC90 (Campylobacter coli) greater than 2 µg/mL and an MIC50 [42] of 0.008 µg/mL (≈ 0.0229 µM). It also gave an MIC90 [42] of 0.03 µg/mL (≈ 0.0859 µM), an inhibition at 0.008 µg/mL (Plesiomonas shigelloides [43]) of 100% and an inhibition at 0.03 µg/mL (Vibrio sp. [44]) of 100%. The MIC50 (Shigella flexneri) was 0.004 µg/mL (≈ 0.0114 µM) and the MIC90 (Shigella flexneri) was 0.008 µg/mL (≈ 0.0229 µM).
